Laboratory results as given in PubChem BioAssay AID1963984 (Molecular Pharmacology Branch, DTP, NCI, 2024).
pIC50: −log10 of the molar value.

System: 233499-124-R-J3-PDC spheroids with HUVEC/MSC, viability
Test: Anticancer human tumor 233499-124-R-J3-PDC patient-derived colon adenocarcinoma cell line growth inhibition [PI3K]
Conditions: for pIC50: curve of first compound; for viability, T/C: stronger effect = lower value
Outline: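 Complex 3D spheroids (cancer cells + endothelial HUVEC + mesenchymal stem cells); drug pairs of targeted agent x inavolisib/alpelisib/duvelisib/copanlisib; half-log series from ~Cmax, max 10 microM if Cmax unknown; endpoint viability.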

[1] = second compound 0.00316 µM, first compound 0.0316 µM
[2] = second compound 0.00316 µM, first compound 0.1 µM
[3] = second compound 0.00316 µM, first compound 0.316 µM
[4] = second compound 0.00316 µM, first compound 1 µM
[5] = second compound 0.00316 µM, first compound 3.16 µM
[6] = second compound 0.00316 µM, first compound 10 µM
[7] = second compound 0.01 µM, first compound 0.0316 µM
[8] = second compound 0.01 µM, first compound 0.1 µM
[9] = second compound 0.01 µM, first compound 0.316 µM
[10] = second compound 0.01 µM, first compound 1 µM
[11] = second compound 0.01 µM, first compound 3.16 µM
[12] = second compound 0.01 µM, first compound 10 µM
[13] = second compound 0.0316 µM, first compound 0.0316 µM
[14] = second compound 0.0316 µM, first compound 0.1 µM
[15] = second compound 0.0316 µM, first compound 0.316 µM
[16] = second compound 0.0316 µM, first compound 1 µM
[17] = second compound 0.0316 µM, first compound 3.16 µM
[18] = second compound 0.0316 µM, first compound 10 µM
[19] = second compound 0.1 µM, first compound 0.0316 µM
[20] = second compound 0.1 µM, first compound 0.1 µM
[21] = second compound 0.1 µM, first compound 0.316 µM
[22] = second compound 0.1 µM, first compound 1 µM
[23] = second compound 0.1 µM, first compound 3.16 µM
[24] = second compound 0.1 µM, first compound 10 µM
[25] = second compound 0.316 µM, first compound 0.0316 µM
[26] = second compound 0.316 µM, first compound 0.1 µM
[27] = second compound 0.316 µM, first compound 0.316 µM
[28] = second compound 0.316 µM, first compound 1 µM
[29] = second compound 0.316 µM, first compound 3.16 µM
[30] = second compound 0.316 µM, first compound 10 µM
[31] = second compound 1 µM, first compound 0.0316 µM
[32] = second compound 1 µM, first compound 0.1 µM
[33] = second compound 1 µM, first compound 0.316 µM
[34] = second compound 1 µM, first compound 1 µM
[35] = second compound 1 µM, first compound 3.16 µM
[36] = second compound 1 µM, first compound 10 µM
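Note: spheroids exposed to agents for seven days before readout.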
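Throughout, for viability, T/C: percent viability relative to DMSO vehicle control taken as 100%.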

CC(Cn1ccc(-c2ccc(C#N)c(Cl)c2)n1)NC(=O)c1cc(C(C)O)[nH]n1 (stereo unspecified) + CC(Nc1ccc2c(c1)OCCn1cc(N3C(=O)OCC3C(F)F)nc1-2)C(N)=O
pIC50 (second compound 0.00316 µM): < 5.00
pIC50 (second compound 0.01 µM): < 5.00
pIC50 (second compound 0.0316 µM): < 5.00
pIC50 (second compound 0.1 µM): < 5.00
pIC50 (second compound 0.316 µM): 5.13
pIC50 (second compound 1 µM): < 5.00
viability, T/C [1]: 97.5%
viability, T/C [2]: 84.3%
viability, T/C [3]: 86.6%
viability, T/C [4]: 83.1%
viability, T/C [5]: 90.8%
viability, T/C [6]: 97.7%
viability, T/C [7]: 99.5%
viability, T/C [8]: 77.7%
viability, T/C [9]: 96.2%
viability, T/C [10]: 83.4%
viability, T/C [11]: 82.5%
viability, T/C [12]: 76.8%
viability, T/C [13]: 92.1%
viability, T/C [14]: 82.4%
viability, T/C [15]: 67.9%
viability, T/C [16]: 93.9%
viability, T/C [17]: 101%
viability, T/C [18]: 83%
viability, T/C [19]: 83.1%
viability, T/C [20]: 89.3%
viability, T/C [21]: 90%
viability, T/C [22]: 80.3%
viability, T/C [23]: 74.4%
viability, T/C [24]: 71%
viability, T/C [25]: 76%
viability, T/C [26]: 63.7%
viability, T/C [27]: 70.5%
viability, T/C [28]: 73.6%
viability, T/C [29]: 90.6%
viability, T/C [30]: 41.2%
viability, T/C [31]: 62%
viability, T/C [32]: 62%
viability, T/C [33]: 47.4%
viability, T/C [34]: 62.6%
viability, T/C [35]: 66%
viability, T/C [36]: 54.6%

CC1(C)CCC(Nc2ncc(C(F)(F)F)c(-c3c[nH]c4c(P(C)(C)=O)c(C#N)ccc34)n2)CN1 (stereo unspecified) + CC(Nc1ccc2c(c1)OCCn1cc(N3C(=O)OCC3C(F)F)nc1-2)C(N)=O
pIC50 (second compound 0.00316 µM): 7.13
pIC50 (second compound 0.01 µM): > 7.50
pIC50 (second compound 0.0316 µM): 7.03
pIC50 (second compound 0.1 µM): > 7.50
pIC50 (second compound 0.316 µM): 7.07
pIC50 (second compound 1 µM): > 7.50
viability, T/C [1]: 55.3%
viability, T/C [2]: 58.7%
viability, T/C [3]: 24.6%
viability, T/C [4]: 19.3%
viability, T/C [5]: 34.4%
viability, T/C [6]: 1.55%
viability, T/C [7]: 39.4%
viability, T/C [8]: 42.9%
viability, T/C [9]: 34.9%
viability, T/C [10]: 22.1%
viability, T/C [11]: 22.7%
viability, T/C [12]: 1.45%
viability, T/C [13]: 79.9%
viability, T/C [14]: 44.4%
viability, T/C [15]: 31.4%
viability, T/C [16]: 17%
viability, T/C [17]: 17.1%
viability, T/C [18]: 1.3%
viability, T/C [19]: 36.5%
viability, T/C [20]: 40.7%
viability, T/C [21]: 24.5%
viability, T/C [22]: 13.8%
viability, T/C [23]: 18.9%
viability, T/C [24]: 4.74%
viability, T/C [25]: 67.4%
viability, T/C [26]: 43%
viability, T/C [27]: 34.3%
viability, T/C [28]: 19.4%
viability, T/C [29]: 20.7%
viability, T/C [30]: 2.38%
viability, T/C [31]: 49%
viability, T/C [32]: 29.3%
viability, T/C [33]: 28.6%
viability, T/C [34]: 18.6%
viability, T/C [35]: 25.9%
viability, T/C [36]: 0.86%

Cn1nccc1Nc1nccc(-c2ccn(C(CO)c3ccc(Cl)c(F)c3)c(=O)c2)n1 (stereo unspecified) + CC(Nc1ccc2c(c1)OCCn1cc(N3C(=O)OCC3C(F)F)nc1-2)C(N)=O
pIC50 (second compound 0.00316 µM): < 5.00
pIC50 (second compound 0.01 µM): 5.01
pIC50 (second compound 0.0316 µM): < 5.00
pIC50 (second compound 0.1 µM): < 5.00
pIC50 (second compound 0.316 µM): 6.16
pIC50 (second compound 1 µM): 6.68
viability, T/C [1]: 81.3%
viability, T/C [2]: 95.2%
viability, T/C [3]: 80.5%
viability, T/C [4]: 104%
viability, T/C [5]: 52.7%
viability, T/C [6]: 58.2%
viability, T/C [7]: 83%
viability, T/C [8]: 81.6%
viability, T/C [9]: 74.3%
viability, T/C [10]: 74.9%
viability, T/C [11]: 59.5%
viability, T/C [12]: 50.2%
viability, T/C [13]: 95.6%
viability, T/C [14]: 100%
viability, T/C [15]: 71.8%
viability, T/C [16]: 55.7%
viability, T/C [17]: 79.3%
viability, T/C [18]: 66%
viability, T/C [19]: 76.3%
viability, T/C [20]: 77.3%
viability, T/C [21]: 82.3%
viability, T/C [22]: 63.2%
viability, T/C [23]: 53.1%
viability, T/C [24]: 48.1%
viability, T/C [25]: 78.3%
viability, T/C [26]: 73%
viability, T/C [27]: 58.6%
viability, T/C [28]: 45.9%
viability, T/C [29]: 39.6%
viability, T/C [30]: 36.3%
viability, T/C [31]: 55.8%
viability, T/C [32]: 58.6%
viability, T/C [33]: 43.5%
viability, T/C [34]: 41.6%
viability, T/C [35]: 38.9%
viability, T/C [36]: 27.8%
